From publication doi:10.1101/815415v1 (biorxiv, 2019)

Target: xylanase from Bacillus circulans (BCX) (Niallia circulans, UniProt P09850)
Assay: NMR titration, 1H-15N HSQC 2D lineshape fit
Assay type: binding
Conditions: 25 mM sodium acetate, pH 5.8, 6% D2O, 20 °C; active site -1/-2 subsites

OC1OC[C@@H](O[C@@H]2OC[C@@H](O)[C@H](O)[C@H]2O)[C@H](O)[C@H]1O (stereo partly shown) [X2, xylobiose]
Kd: 10 mM
